Patent publication US20230099344A1, “COMPOUNDS AND METHODS FOR THE TARGETED DEGRADATION OF IRAK-4” (Arvinas Operations, Inc., priority 2021, published 2023)

How the values were obtained:
Type in all cases: cell-based
IRAK-4 [1] = target: T1, IRAK-4 (Homo sapiens, UniProt Q9NWZ3); experiment: IRAK-4 ELISA, OCI-Ly10 degradation; set-up: endogenous in cells; details: treated overnight; for Dmax: OCI-Ly10, OCI-Ly10 cells
T1 sequence (Q9NWZ3 1-460): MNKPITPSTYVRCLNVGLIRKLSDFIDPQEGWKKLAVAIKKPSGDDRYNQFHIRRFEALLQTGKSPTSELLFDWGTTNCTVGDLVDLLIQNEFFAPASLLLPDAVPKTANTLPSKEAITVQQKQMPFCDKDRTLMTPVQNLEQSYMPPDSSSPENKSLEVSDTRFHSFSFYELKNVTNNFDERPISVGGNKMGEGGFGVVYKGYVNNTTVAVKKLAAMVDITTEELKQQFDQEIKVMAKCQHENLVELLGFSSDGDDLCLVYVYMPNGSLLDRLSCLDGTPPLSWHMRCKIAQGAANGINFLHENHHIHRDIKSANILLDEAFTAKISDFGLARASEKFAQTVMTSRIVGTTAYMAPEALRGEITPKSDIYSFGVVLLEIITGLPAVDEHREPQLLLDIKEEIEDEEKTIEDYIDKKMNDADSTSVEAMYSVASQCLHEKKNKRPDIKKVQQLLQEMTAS
Experimental: Reagents: Human IRAK-4 Matched Antibody Pair Kit (Abcam ab218182) and ELISA Accessory Pack (Abcam ab210905).
Cell Treatment and Lysis:
1. OCI-Ly10: 200,000 cells are seeded at 1×10^6/ml in 96-well U-bottom plates 200 ul per well, treated with compound the same day. Incubate overnight. 2. PBMC: 800,000 cells are seeded at 2×10^6/ml in 96-well U-bottom deep-well plates, 400 ul per well, treated with compound the same day. Incubate overnight.
Cell lysate is collected and analyzed by ELISA for IRAK-4 levels.

IL6 [2] = experiment: R848 stimulated IL6 inhibition assay in PBMC; details: PBMC, human PBMCs, R848 stimulation, compound overnight, IL6 by MSD after 24 hrs; for Dmax: Homo sapiens, 24 h, read-out: R848 stim IL6 inhibition Dmax; for IC50: read-out: R848 stim IL6 inhibition IC50
In short: (§1)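 Primary human PBMCs plated at 2.0×10^6 cells/mL are incubated with compound overnight. Stimulation follows using the donor's EC50 concentration of agonist. MSD detects secreted IL6/IL8 at 24 hrs.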

IRAK-4 [3] = target: T1, IRAK-4; experiment: IRAK-4 ELISA, PBMC degradation; set-up: endogenous in cells; host or cells: PBMC; details: treated overnight
In short: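 OCI-Ly10 cells (seeded at 1×10^6/ml) or human PBMC (seeded at 2×10^6/ml) were treated with compound on the day of seeding and incubated overnight. Lysates were then assayed for remaining IRAK-4 protein by sandwich ELISA with a matched antibody pair.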

IL6 [4] = experiment: LPS stimulated IL6 inhibition assay in PBMC; details: Homo sapiens, PBMC, 24 h, human PBMCs, LPS stimulation, compound overnight, IL6 by MSD after 24 hrs; for Dmax: read-out: LPS Stim IL6 inhibition Dmax; for IC50: read-out: LPS stim IL6 inhibition IC50
In short: as §1

| Dmax (IRAK-4 [1]) [%] | DC50 (IRAK-4 [1]; OCI-Ly10 cells) [µM] | OCI-LY10 Dmax (IRAK-4 [1]; OCI-Ly10 cells) | IC50 (IL6 [2]) [µM] | DC50 (IRAK-4 [3]) [µM] | Dmax (IRAK-4 [3]) [%] | PBMC DC90 (IRAK-4 [3]) | IC50 (IL6 [4]) [µM] | SMILES | Dmax (IL6 [2]) [%] | Dmax (IL6 [4]) [%] |
| --- | --- | --- | --- | --- | --- | --- | --- | --- | --- | --- |
| 80 to 90 | 0.01 to 0.05 |  |  |  |  |  |  | CC(C)Oc1cc2c(cc1NC(=O)c1cnn3cccnc13)CN(C1CCN(CCc3ccc4c(c3)C(=O)N(C3CCC(=O)NC3=O)C4=O)CC1)C2=O (stereo not drawn) [Example 7] |  |  |
| ≥ 90 | 0.01 to 0.05 |  |  |  |  |  |  | O=C1CCC(N2Cc3cc(N4CC(CN5CCC(N6Cc7cc(NC(=O)c8cnn9cccnc89)c(N8CCC(N9CCC9)CC8)cc7C6=O)CC5)C4)ccc3C2=O)C(=O)N1 (stereo not drawn) [Example 35] |  |  |
|  | 0.01 to 0.05 | A (A represents a Dmax value ≥90) |  |  |  |  |  | COc1cc2nn([C@H]3CC[C@H](N(C)CC#Cc4ccc5c(c4)C(=O)N(C4CCC(=O)NC4=O)C5=O)CC3)cc2cc1NC(=O)c1cnn2cccnc12 (stereo partly drawn) [Example 340] |  |  |
|  | ≥ 0.1 |  |  |  |  |  |  | COc1cc2nn(C3CCN(CC4CN(c5ccc6c(c5)C(=O)N(C5CCC(=O)NC5=O)C6=O)C4)C3)cc2cc1NC(=O)c1cnn2cccnc12 (stereo not drawn) [Example 209] |  |  |
| ≥ 90 | 0.01 to 0.05 |  |  |  |  |  |  | COc1cc2nn(C3CCN(CC4CCN(c5ccc(C(=O)NC6CCC(=O)NC6=O)c(F)c5)CC4)CC3)cc2cc1NC(=O)c1cnn2cccnc12 (stereo not drawn) [Example 295] |  |  |
| 80 to 90 | ≥ 0.1 |  |  |  |  |  |  | O=C1CCC(N2C(=O)c3ccc(N4CCC(COC[C@H](F)Cn5cc6cc(NC(=O)c7cnn8cccnc78)c(OCC7CC7)cc6n5)CC4)cc3C2=O)C(=O)N1 (stereo partly drawn) [Example 181] |  |  |
| 80 to 90 | 0.01 to 0.05 |  |  |  |  |  |  | O=C1CCC(N2C(=O)c3ccc(N4CCC(CN5CCC(N6Cc7cc(NC(=O)c8cnn9cc(Cl)cnc89)c(N8CCOCC8)cc7C6=O)CC5)CC4)cc3C2=O)C(=O)N1 (stereo not drawn) [Example 33] |  |  |
|  |  |  | 0.01 to 0.05 | 0.001 to 0.005 | ≥ 90 | A (A represents a DC90 value <10.0 nM) | 0.01 to 0.05 | CC(C)Oc1cc2c(cc1NC(=O)c1cnn3cccnc13)CN(C1CCN(CC3CCN(c4ccc5c(c4)C(=O)N([C@@H]4CCC(=O)NC4=O)C5=O)CC3)CC1)C2=O [Example 47] | 80 to 90 | 80 to 90 |
|  |  |  | 0.01 to 0.05 | 0.001 to 0.005 | ≥ 90 | A (A represents a DC90 value <10.0 nM) | 0.01 to 0.05 | CC(C)Oc1cc2c(cc1NC(=O)c1cnn3cccnc13)CN([C@H]1CC[C@H](CN3CCC(c4ccc5c(c4)C(=O)N(C4CCC(=O)NC4=O)C5=O)CC3)CC1)C2=O (stereo partly drawn) [Example 432] | ≥ 90 | 70 to 80 |
|  |  |  | < 0.01 | < 0.001 | ≥ 90 | A (A represents a DC90 value <10.0 nM) | 0.01 to 0.05 | CN(C1CN(c2ccc3c(c2F)CN(C2CCC(=O)NC2=O)C3=O)C1)[C@H]1CC[C@H](n2cc3cc(NC(=O)c4cnn5cccnc45)c(OCC(F)F)cc3n2)CC1 (stereo partly drawn) [Example 362] | ≥ 90 | 70 to 80 |
|  |  |  | < 0.01 | < 0.001 | ≥ 90 | A (A represents a DC90 value <10.0 nM) | < 0.01 | O=C1CCC(N2Cc3ccc(N4CCN(C[C@H]5CC[C@H](n6cc7cc(NC(=O)c8cnn9cccnc89)c(OCC(F)F)cc7n6)CC5)CC4)cc3C2=O)C(=O)N1 (stereo partly drawn) [Example 433] | ≥ 90 | 80 to 90 |
|  |  |  | 0.01 to 0.05 | 0.001 to 0.005 | ≥ 90 | A (A represents a DC90 value <10.0 nM) | < 0.01 | CC(C)Oc1cc2c(cc1NC(=O)c1cnn3cccnc13)CN([C@H]1CC[C@H](N(C)CC3(F)CN(c4ccc5c(c4)C(=O)N(C4CCC(=O)NC4=O)C5=O)C3)CC1)C2=O (stereo partly drawn) [Example 365] | ≥ 90 | < 70 |
|  |  |  | < 0.01 | 0.001 to 0.005 | 70 to 80 | A (A represents a DC90 value <10.0 nM) | 0.01 to 0.05 | O=C1CCC(N2Cc3ccc(N4CC(F)(CN5CCC(n6cc7cc(NC(=O)c8cnn9cccnc89)c(OCC8CC8)cc7n6)CC5)C4)cc3C2=O)C(=O)N1 (stereo not drawn) [Example 245] | ≥ 90 | 80 to 90 |
|  |  |  | < 0.01 | < 0.001 | ≥ 90 | A (A represents a DC90 value <10.0 nM) | < 0.01 | O=C1CCC(N2Cc3c(ccc(N4CCC(CN5CCC(n6cc7cc(NC(=O)c8cnn9cccnc89)c(N8CCN(CC(F)F)CC8)cc7n6)CC5)CC4)c3F)C2=O)C(=O)N1 (stereo not drawn) [Example 158] | ≥ 90 | 80 to 90 |
|  |  |  | 0.05 to 0.1 | ≥ 0.01 | ≥ 90 | D (D represents a DC90 value ≥50 nM) | 0.05 to 0.1 | O=C1CCC(N2C(=O)c3ccc(N4CC[C@@H](O[C@H]5CC[C@H](n6cc7cc(NC(=O)c8cnn9cccnc89)c(OCC8CC8)cc7n6)CC5)C4)cc3C2=O)C(=O)N1 (stereo partly drawn) [Example 426] | 80 to 90 | < 70 |
|  |  |  | 0.01 to 0.05 | 0.001 to 0.005 | 80 to 90 | A (A represents a DC90 value <10.0 nM) | 0.01 to 0.05 | O=C1CCC(N2C(=O)c3ccc(N4CC(F)(CN5CCC(n6cc7cc(NC(=O)c8cnn9cccnc89)c(OCC(F)F)cc7n6)CC5)C4)cc3C2=O)C(=O)N1 (stereo not drawn) [Example 231] | ≥ 90 | 80 to 90 |
|  |  |  | 0.01 to 0.05 | ≥ 0.01 | 80 to 90 | D (D represents a DC90 value ≥50 nM) | 0.05 to 0.1 | CN1CC(Oc2cc3c(cc2NC(=O)c2cnn4cccnc24)CN(C2CCN(CC4CN(c5ccc6c(c5)C(=O)N(C5CCC(=O)NC5=O)C6=O)C4)CC2)C3=O)C1 (stereo not drawn) [Example 44] | ≥ 90 | 70 to 80 |
|  |  |  | < 0.01 | 0.001 to 0.005 | ≥ 90 | A (A represents a DC90 value <10.0 nM) | 0.01 to 0.05 | CC(C)Oc1cc2c(cc1NC(=O)c1cnn3cccnc13)CN(C1CCN(C(C)(C)C3CN(c4ccc(C(=O)NC5CCC(=O)NC5=O)c(F)c4)C3)CC1)C2=O (stereo not drawn) [Example 312] | ≥ 90 | ≥ 90 |
|  |  |  | 0.01 to 0.05 | < 0.001 | ≥ 90 | A (A represents a DC90 value <10.0 nM) | < 0.01 | CC(C)Oc1cc2c(cc1NC(=O)c1cnn3cccnc13)CN(C1CCN(CC3CN(c4cccc5c4n(C)c(=O)n5C4CCC(=O)NC4=O)C3)CC1)C2=O (stereo not drawn) [Example 381] | ≥ 90 | 70 to 80 |

| SMILES | Dmax (IRAK-4 [1]) [%] | DC50 (IRAK-4 [1]; OCI-Ly10 cells) [µM] | OCI-LY10 Dmax (IRAK-4 [1]; OCI-Ly10 cells) | IC50 (IL6 [2]) [µM] | DC50 (IRAK-4 [3]) [µM] | Dmax (IRAK-4 [3]) [%] | PBMC DC90 (IRAK-4 [3]) | IC50 (IL6 [4]) [µM] | Dmax (IL6 [2]) [%] | Dmax (IL6 [4]) [%] |
| --- | --- | --- | --- | --- | --- | --- | --- | --- | --- | --- |
| O=C1CCC(N2Cc3cc(N4CC(O[C@H]5CC[C@H](n6cc7cc(NC(=O)c8cnn9cccnc89)c(OCC8CC8)cc7n6)CC5)C4)ccc3C2=O)C(=O)N1 (stereo partly drawn) [Example 423, N-[6-(cyclopropylmethoxy)-2-[(1r,4r)-4-({1-[2-(2,6-dioxopiperidin-3-yl)-1-oxo-2,3-dihydro-1H-isoindol-5-yl]azetidin-3-yl}oxy)cyclohexyl]-2H-indazol-5-yl]pyrazolo[1,5-a]pyrimidine-3-carboxamide] |  |  |  | 0.01 to 0.05 | 0.001 to 0.005 | ≥ 90 | B (B represents a DC90 value ≥10.0 nM and <25.0 nM) | 0.01 to 0.05 | ≥ 90 | 80 to 90 |
| CC(C)Oc1cc2nn([C@H]3CC[C@H](OC4CN(c5ccc6c(c5)CN(C5CCC(=O)NC5=O)C6=O)C4)CC3)cc2cc1NC(=O)c1cnn2cccnc12 (stereo partly drawn) [Example 424] |  |  |  | < 0.01 | 0.001 to 0.005 | 80 to 90 | B (B represents a DC90 value ≥10.0 nM and <25.0 nM) | < 0.01 | 80 to 90 | < 70 |
